Test results taken from ChEMBL document CHEMBL1133808, “The discovery of sulfonylated dipeptides as potent VLA-4 antagonists” (Bioorg Med Chem Lett, 2001).

Columns and labels:
[1] = Oral bioavailability in rat (Sprague-Dawley) (dose 1 mg/kg i.v.); assay type: ADME, organism-based; conditions: in vivo
[2] = molecular target: T1, Integrin alpha-4/beta-1 (Homo sapiens, UniProt P05556+P13612); test: Antagonistic activity against VLA-4 integrin of human jurkat cells using [125I]VCAM-Ig as radioligand; assay type: functional, cell-based
[3] = Oral bioavailability in rat (Sprague-Dawley) (dose 2 mg/kg); assay type: ADME, organism-based; conditions: in vivo
[4] = Plasma clearance in Sprague-Dawley rats; assay type: ADME, organism-based; conditions: rat, read-out: Clp
[5] = Oral bioavailability in Sprague-Dawley rats; assay type: ADME, organism-based; conditions: rat, in vivo
[6] = Compound was tested for protein binding in human plasma; assay type: ADME, cell-free; conditions: read-out: Protein binding (converted)
[7] = Plasma half-life in Sprague-Dawley rats; assay type: ADME, organism-based; conditions: rat
[8] = molecular target: T2, Integrin alpha-4/beta-7 (Homo sapiens, UniProt P13612+P26010); test: Inhibition of [125I]VCAM-Ig binding to alpha4-beta7 integrin of human RPMI-8866 cells; assay type: cell-based
T2 sequence (P13612 whole entry): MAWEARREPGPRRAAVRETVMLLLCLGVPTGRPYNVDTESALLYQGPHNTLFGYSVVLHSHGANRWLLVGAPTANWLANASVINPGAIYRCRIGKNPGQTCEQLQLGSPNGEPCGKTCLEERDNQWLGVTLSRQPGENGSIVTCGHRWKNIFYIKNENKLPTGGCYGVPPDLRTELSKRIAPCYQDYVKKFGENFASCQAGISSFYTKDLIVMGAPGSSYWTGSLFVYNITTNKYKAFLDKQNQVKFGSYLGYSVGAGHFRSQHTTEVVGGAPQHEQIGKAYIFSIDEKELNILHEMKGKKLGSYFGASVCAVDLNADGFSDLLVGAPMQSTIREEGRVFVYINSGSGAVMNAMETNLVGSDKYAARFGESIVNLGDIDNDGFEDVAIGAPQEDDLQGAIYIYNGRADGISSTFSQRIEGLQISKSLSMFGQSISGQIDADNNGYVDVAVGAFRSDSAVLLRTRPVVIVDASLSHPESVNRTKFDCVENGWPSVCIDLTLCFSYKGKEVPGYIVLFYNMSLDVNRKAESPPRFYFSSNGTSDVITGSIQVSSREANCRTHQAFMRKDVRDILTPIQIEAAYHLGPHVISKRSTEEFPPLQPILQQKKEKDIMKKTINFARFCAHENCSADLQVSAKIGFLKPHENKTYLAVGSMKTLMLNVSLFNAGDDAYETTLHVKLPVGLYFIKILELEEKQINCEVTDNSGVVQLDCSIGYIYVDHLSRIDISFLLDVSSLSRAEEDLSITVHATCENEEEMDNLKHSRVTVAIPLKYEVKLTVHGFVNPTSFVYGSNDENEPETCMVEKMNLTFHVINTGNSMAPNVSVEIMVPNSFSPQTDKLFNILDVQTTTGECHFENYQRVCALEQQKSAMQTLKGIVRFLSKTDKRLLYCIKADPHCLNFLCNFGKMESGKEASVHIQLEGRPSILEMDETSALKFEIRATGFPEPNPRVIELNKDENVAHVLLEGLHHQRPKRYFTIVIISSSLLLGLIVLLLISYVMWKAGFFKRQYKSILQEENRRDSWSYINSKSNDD
T2 sequence (P26010 whole entry): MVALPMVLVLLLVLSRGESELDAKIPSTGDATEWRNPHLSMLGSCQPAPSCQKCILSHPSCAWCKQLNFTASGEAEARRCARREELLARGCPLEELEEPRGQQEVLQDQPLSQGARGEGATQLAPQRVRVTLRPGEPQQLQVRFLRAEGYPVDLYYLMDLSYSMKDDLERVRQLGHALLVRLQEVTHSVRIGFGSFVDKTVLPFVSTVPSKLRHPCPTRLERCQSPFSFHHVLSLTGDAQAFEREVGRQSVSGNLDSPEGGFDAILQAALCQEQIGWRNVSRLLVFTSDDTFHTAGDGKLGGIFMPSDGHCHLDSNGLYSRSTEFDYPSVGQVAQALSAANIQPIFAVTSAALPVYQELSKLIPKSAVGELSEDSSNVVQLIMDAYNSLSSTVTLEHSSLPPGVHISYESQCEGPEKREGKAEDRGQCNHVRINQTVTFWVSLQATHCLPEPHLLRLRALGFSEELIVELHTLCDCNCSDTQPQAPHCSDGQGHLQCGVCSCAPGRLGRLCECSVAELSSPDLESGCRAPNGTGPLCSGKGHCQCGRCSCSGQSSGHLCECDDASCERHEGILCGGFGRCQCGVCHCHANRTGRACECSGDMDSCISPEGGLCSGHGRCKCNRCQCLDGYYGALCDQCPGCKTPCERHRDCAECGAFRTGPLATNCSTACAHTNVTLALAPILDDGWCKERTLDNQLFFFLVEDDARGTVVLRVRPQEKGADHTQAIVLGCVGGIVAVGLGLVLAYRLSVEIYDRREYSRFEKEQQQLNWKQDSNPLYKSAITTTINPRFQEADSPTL

[9] = Plasma half-life in Beagle dogs; assay type: ADME, organism-based, Canis lupus familiaris; conditions: dog
[10] = Plasma clearance in Beagle dogs; assay type: ADME, organism-based, Canis lupus familiaris; conditions: dog, read-out: Clp
[11] = Compound was tested for protein binding in rat plasma; assay type: ADME, organism-based; conditions: read-out: Protein binding (converted)
[12] = Plasma half-life in rhesus monkey; conditions: cercopithecidae
[13] = Plasma clearance in rhesus monkey; assay type: ADME, organism-based; conditions: cercopithecidae, read-out: Clp
[14] = molecular target: T2, Integrin alpha-4/beta-7; test: Inhibition of [125I]MAdCAM-Ig binding to alpha4-beta7 integrin of human RPMI-8866 cells; assay type: cell-based
[15] = molecular target: T1, Integrin alpha-4/beta-1; test: Inhibition of [125I]VCAM-Ig binding to VLA-4 integrin of human Jurkat cells; assay type: cell-based
[16] = molecular target: T1, Integrin alpha-4/beta-1; test: Inhibition of [125I]-VCAM-Ig binding to VLA-4 integrin of human Jurkat cells; assay type: cell-based

T1 sequence (P05556 whole entry, one chain of several): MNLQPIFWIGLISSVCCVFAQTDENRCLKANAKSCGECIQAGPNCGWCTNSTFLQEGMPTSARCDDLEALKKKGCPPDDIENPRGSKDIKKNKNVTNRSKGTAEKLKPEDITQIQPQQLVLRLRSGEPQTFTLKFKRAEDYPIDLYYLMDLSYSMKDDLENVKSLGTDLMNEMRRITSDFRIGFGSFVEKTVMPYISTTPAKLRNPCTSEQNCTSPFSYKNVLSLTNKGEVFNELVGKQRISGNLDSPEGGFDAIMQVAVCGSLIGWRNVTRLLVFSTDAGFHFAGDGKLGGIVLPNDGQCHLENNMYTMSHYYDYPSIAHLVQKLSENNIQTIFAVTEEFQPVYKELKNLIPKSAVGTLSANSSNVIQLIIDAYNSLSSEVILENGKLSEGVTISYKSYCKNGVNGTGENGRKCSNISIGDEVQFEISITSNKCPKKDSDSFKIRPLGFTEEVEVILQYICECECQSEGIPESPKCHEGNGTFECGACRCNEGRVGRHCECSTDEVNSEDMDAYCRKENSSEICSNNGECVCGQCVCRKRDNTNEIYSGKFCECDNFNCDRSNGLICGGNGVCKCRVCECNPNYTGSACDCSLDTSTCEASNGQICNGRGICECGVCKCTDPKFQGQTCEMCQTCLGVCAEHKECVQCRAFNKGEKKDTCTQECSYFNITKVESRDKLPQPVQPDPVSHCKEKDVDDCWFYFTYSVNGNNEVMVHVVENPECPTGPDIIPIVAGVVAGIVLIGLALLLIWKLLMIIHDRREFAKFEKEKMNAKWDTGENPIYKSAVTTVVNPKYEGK

**Q.** For COc1ccccc1-c1ccc(C[C@H](NC(=O)[C@@H]2CCCN2S(=O)(=O)c2cc(Cl)cc(Cl)c2)C(=O)O)cc1, which bioavailability [1] is on record?
**A.** 3%

**Q.** And the IC50 [2]?
**A.** 0.64 nM

**Q.** And the bioavailability [3]?
**A.** 3%

**Q.** And the clearance [4]?
**A.** 39 mL/min/kg

**Q.** Which results are given for O=C(O)[C@H](Cc1ccc2ccccc2c1)NC(=O)[C@@H]1CCCN1S(=O)(=O)c1cc(Cl)cc(Cl)c1?
**A.** IC50 [2]: 0.5 nM; bioavailability [5]: 15%; fraction unbound [6]: 0.004; half-life [7]: 0.6 h; clearance [4]: 49 mL/min/kg

**Q.** Which results are given for N#Cc1ccccc1-c1ccc(C[C@H](NC(=O)[C@@H]2CCCN2S(=O)(=O)c2cc(Cl)cc(Cl)c2)C(=O)O)cc1?
**A.** bioavailability [1]: 4%; IC50 [2]: 0.46 nM; bioavailability [3]: 4%; clearance [4]: 21 mL/min/kg

**Q.** Which IC50 [8] does the source give for C[C@@]1(C(=O)N[C@@H](Cc2ccc(-c3ccccc3C#N)cc2)C(=O)O)CCCN1S(=O)(=O)c1cc(Cl)cc(Cl)c1 here?
**A.** 345 nM

**Q.** What about the half-life [9] of the same compound?
**A.** 3.4 h

**Q.** And the clearance [10]?
**A.** 25 mL/min/kg

**Q.** What about the IC50 [2] of the same compound?
**A.** 0.92 nM

**Q.** And the fraction unbound [11]?
**A.** 0.005

**Q.** What about the half-life [12] of the same compound?
**A.** 5.3 h

**Q.** What about the fraction unbound [6] of the same compound?
**A.** 0.005

**Q.** And the half-life [7]?
**A.** 1.5 h

**Q.** And the clearance [13]?
**A.** 12 mL/min/kg

**Q.** Which results are given for COc1cccc(OC)c1-c1ccc(C[C@H](NC(=O)[C@]2(C)CCCN2S(=O)(=O)c2cc(Cl)cc(Cl)c2)C(=O)O)cc1?
**A.** IC50 [8]: 2.98 nM; IC50 [2]: 0.08 nM; half-life [7]: 2.2 h; clearance [4]: > 100 mL/min/kg; IC50 [14]: 11.5 nM

**Q.** For CCCC[C@H](NC(=O)[C@@H]1Cc2ccccc2CN1S(=O)(=O)c1ccc(OC)c(OC)c1)C(=O)O, which IC50 [15] is on record?
**A.** 58 nM

**Q.** Which results are given for COc1cccnc1-c1ccc(C[C@H](NC(=O)[C@]2(C)CCCN2S(=O)(=O)c2cc(Cl)cc(Cl)c2)C(=O)O)cc1?
**A.** IC50 [2]: 0.11 nM; half-life [7]: 0.5 h; clearance [4]: 71 mL/min/kg; IC50 [14]: 52.5 nM

**Q.** With COc1ccc(S(=O)(=O)N2Cc3ccccc3C[C@H]2C(=O)N[C@@H](CCC(=O)O)C(=O)O)cc1OC as the compound, how does the IC50 [16] read?
**A.** 257 nM

**Q.** Which results are given for C[C@@]1(C(=O)N[C@@H](Cc2ccc(-c3ccccn3)cc2)C(=O)O)CCCN1S(=O)(=O)c1cc(Cl)cc(Cl)c1?
**A.** IC50 [2]: 0.15 nM; half-life [7]: 1 h; clearance [4]: 17 mL/min/kg; IC50 [14]: 97.1 nM
